Reference: patent US4863905A, “Renin inhibitors II” (Warner-Lambert Company, priority 1987, dated 1989)

Biological target: T1, renin (Homo sapiens, UniProt P00797)
T1 sequence (P00797 67-406): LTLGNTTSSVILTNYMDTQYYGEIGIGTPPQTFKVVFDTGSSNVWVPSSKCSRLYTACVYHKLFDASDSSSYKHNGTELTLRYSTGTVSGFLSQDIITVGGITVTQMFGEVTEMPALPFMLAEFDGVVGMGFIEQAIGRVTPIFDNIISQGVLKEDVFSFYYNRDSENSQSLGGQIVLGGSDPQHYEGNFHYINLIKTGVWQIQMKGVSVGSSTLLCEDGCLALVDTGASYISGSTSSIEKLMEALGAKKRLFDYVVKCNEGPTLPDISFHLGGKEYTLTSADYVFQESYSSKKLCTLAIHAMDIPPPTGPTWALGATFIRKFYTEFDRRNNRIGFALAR
Assay: in vitro renin inhibitory activity, radioimmunoassay for angiotensin I
Format: biochemical
Conditions: renin incubated two hours at 37° with substrate angiotensinogen; angiotensin I by radioimmunoassay; molar concentration causing 50% inhibition
Method: The effectiveness of the aforementioned compound is determined by a test for in vitro renin inhibitory activity. This activity is determined by a standard radioimmunoassay for angiotensin I. In this assay the enzyme, renin, incubated for two hours at 37° in the presence of a substrate, angiotensinogen, generates the product, angiotensin I. Test compounds are added to the incubation mixture. Relative activity is reported as the IC50, which is the molar concentration of test compound causing a 50% inhibition of the renin activity.

| IC50 | Substance |
| --- | --- |
| 1800 nM | DNMA--HIS--CYCLOHEXYLALA[CHOHCH2 ](CH2)2 CH(CH3)2 [Example 5] |
| 6400 nM | DNMA--HIS--CYCLOHEXYLALA[CHOHCH2 ]GLY--LEU--NHCH2 Ph [Example 11] |
| 170 nM | DNMA--HIS--CYCLOHEXYLALA[CHOHCH2 ]LEU--NHCH2 CH(CH3)--CH2 CH3 [Example 15] |
| 4400 nM | DNMA--HIS--CYCLOHEXYLALA[CHOHCH2 ]LEU--NHCH2 Ph [Example 14] |
| 280 nM | DNMA--HIS--CYCLOHEXYLALA[CHOHCHOH]CH2 OH [Example 7] |
| 8700 nM | DNMA--HIS--STA[CH2 NH]CH2 CH(CH3)CH2 CH3 [Example 10] |
| 160 nM | DNMA--HIS--STA[CH2 SO2 ](CH2)3 CH3 [Example 4] |
| 12000 nM | DNMA--HIS--STA[CHOHCH2 ]CH2 Ph [Example 18] |
| 1900 nM | DNMA[CHOHCH2 ]LEU--STA--NHCH2 CH(CH3)CH2 CH3 [Example 20] |

| Substance | IC50 |
| --- | --- |
| DNMA--HIS--CYCLOHEXYLALA[CHOHCH2 ]GLY--NHCH2 CH(CH3)--CH2 CH3 [Example 16] | 250 nM |
| DNMA--HIS--CYCLOHEXYLALA[CHOHCH2 ]GLY--NHCH2 Ph [Example 17] | 3400 nM |
| DNMA--HIS--LEU[CHOHCH2 ]SO2 NHCH2 CH2 Ph [Example 1] | 12000 nM |
| DNMA--HIS[CH2 NH]STA--NHCH2 CH(CH3)CH2 CH3 [Example 8] | 16000 nM |

Same assay, conditions: renin incubated two hours at 37° with substrate angiotensinogen; angiotensin I by radioimmunoassay; molar concentration causing 50% inhibition; listed as DNMAHIS STA[CHOHCH2 ]CH2 Ph (ISOMER)

| Substance | IC50 |
| --- | --- |
| DNMA--HIS--STA[CHOHCH2 ]CH2 Ph [Example 19] | 1400 nM |
